Test results reported in ChEMBL document CHEMBL1126157, “QSAR analyses of the substituted indanone and benzylpiperidine rings of a series of indanone-benzylpiperidine inhibitors of acetylcholinesterase” (J Med Chem, 1992).

Experiments:
Acetylcholinesterase [1] = biological target: T1, Acetylcholinesterase (Homo sapiens, UniProt P22303)
Acetylcholinesterase [2] = biological target: T1, Acetylcholinesterase; remark: listed apart in the source
Description: Inhibition of acetylcholinesterase.

Acetylcholinesterase [3] = biological target: T1, Acetylcholinesterase; remark: listed apart in the source
Acetylcholinesterase [4] = biological target: T1, Acetylcholinesterase; remark: listed apart in the source
Description: Inhibition of acetylcholinesterase.

T1 sequence (P22303 whole entry): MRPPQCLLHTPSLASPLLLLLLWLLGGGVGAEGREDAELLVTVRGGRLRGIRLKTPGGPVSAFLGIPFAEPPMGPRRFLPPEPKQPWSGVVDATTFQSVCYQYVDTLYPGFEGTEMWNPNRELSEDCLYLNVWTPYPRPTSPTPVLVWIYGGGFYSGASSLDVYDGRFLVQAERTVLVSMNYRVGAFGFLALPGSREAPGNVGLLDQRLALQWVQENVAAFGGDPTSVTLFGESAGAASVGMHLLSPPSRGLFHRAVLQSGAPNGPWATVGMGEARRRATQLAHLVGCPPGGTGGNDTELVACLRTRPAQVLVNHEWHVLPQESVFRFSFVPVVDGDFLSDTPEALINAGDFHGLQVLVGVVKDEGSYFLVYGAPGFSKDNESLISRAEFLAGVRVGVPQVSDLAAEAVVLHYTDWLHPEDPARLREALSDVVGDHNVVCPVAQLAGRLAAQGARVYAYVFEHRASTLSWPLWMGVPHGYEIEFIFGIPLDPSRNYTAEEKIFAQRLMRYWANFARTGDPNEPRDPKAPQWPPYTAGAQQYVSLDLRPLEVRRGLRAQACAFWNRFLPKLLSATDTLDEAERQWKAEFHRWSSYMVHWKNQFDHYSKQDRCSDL

| SMILES | IC50 (Acetylcholinesterase [1]) [nM] | IC50 (Acetylcholinesterase [2]) [nM] | IC50 (Acetylcholinesterase [3]) [µM] | IC50 (Acetylcholinesterase [4]) [nM] |
| --- | --- | --- | --- | --- |
| COc1ccc2c(c1)C(=O)C(C)C2 (stereo not given) | 380 | 81.3 | – | – |
| Cc1ccccc1 [TOLUENE] | – | – | 4.9 | 5.25 |
| COc1ccc(OC)c2c1CC(C)C2=O (stereo not given) | 380 | 36.3 | – | – |
| Cc1ccc(O)cc1 [p-CRESOL] | – | – | 4.9 | 1.82 |
| Cc1ccc(F)cc1 | – | – | 4.9 | 9.55 |
| COc1ccc2c(c1OC)C(=O)C(C)C2 (stereo not given) | 380 | 87.1 | – | – |
| COc1cccc2c1CC(C)C2=O (stereo not given) | 380 | 12 | – | – |
| COc1cccc(C)c1 | – | – | 4.9 | 219 |
| Cc1cccc(O)c1 [METACRESOL] | – | – | 4.9 | 45.7 |
| Cc1ccc([N+](=O)[O-])cc1 [4-NITROTOLUENE] | – | – | 4.9 | 100 |
| Cc1cccc(C)c1 [M-XYLENE] | – | – | 4.9 | 2 |
| Cc1ccc(C)cc1 [P-XYLENE] | – | – | 4.9 | 39.8 |
| COc1cc2c(c(OC)c1OC)C(=O)C(C)C2 (stereo not given) | 380 | 13.2 | – | – |
| COc1cc2c(c(OC)c1)C(=O)C(C)C2 (stereo not given) | 380 | 25.1 | – | – |
| COc1cc2c(cc1O)C(=O)C(C)C2 (stereo not given) | 380 | 1.32 | – | – |
| Cc1cccc(F)c1 | – | – | 4.9 | 1 |
| COc1cc2c(cc1O)CC(C)C2=O (stereo not given) | 380 | 380 | – | – |
| CC1Cc2ccccc2C1=O (stereo not given) | 380 | 148 | – | – |
| Cc1cccc2c1CC(C)C2=O (stereo not given) | 380 | 7.08 | – | – |
| COc1cc2c(cc1OC)C(=O)C(C)C2 (stereo not given) | 380 | 5.25 | – | – |
| CCOc1cc2c(cc1OCC)C(=O)C(C)C2 (stereo not given) | 380 | 6.31 | – | – |
| COc1ccc2c(c1OC)CC(C)C2=O (stereo not given) | 380 | 20 | – | – |
| Cc1ccccc1F | – | – | 4.9 | 9.55 |
| CC1Cc2cc3c(cc2C1=O)OCO3 (stereo not given) | 380 | 22.9 | – | – |
| Cc1ccccc1C [O-XYLENE] | – | – | 4.9 | 10 |
| COc1ccc(C)cc1OC | – | – | 4.9 | 3980 |
| COc1cc2c(cc1OC(C)C)CC(C)C2=O (stereo not given) | 380 | 8.91 | – | – |
| Cc1ccc2c(c1)C(=O)C(C)C2 (stereo not given) | 380 | 69.2 | – | – |
| COc1cc(C)cc(OC)c1OC | – | – | 4.9 | 4900 |
| CC1Cc2ccc(F)cc2C1=O (stereo not given) | 380 | 200 | – | – |
